In patent US20140227318A1, “SLEEP QUALITY IMPROVING AGENT” (LION CORPORATION, priority 2011, published 2014):

Experiments:
[1] = tested on: male C57BL/6 mice; assay: Measurement of amount of activity of mice (sleep inducing effect); assay type: in vivo, mouse; conditions: oral; for CUMULATIVE AMOUNT OF ACTIVITY 6 HOURS AFTER ADMINISTRATION: n=8; for sleep inducing effect: conclusion from amount of activity
Procedure: To check the sleep inducing effect of the S-adenosylmethionine-containing yeast, the following test was performed using respective samples shown in TABLE 1.
The S-adenosylmethionine-containing yeast (the sample in Example 1) used was “AMee (trade name)” manufactured by IWATA CHEMICAL CO., LTD. “Nissin Super Camellia dry yeast (trade name)” manufactured by Nisshin Foods Inc. was used as a yeast containing no adenosylmethionine (the sample in Comparative Example 2). S-adenosylmethionine disulfate tosylate (the sample in Comparative Example 3) used was S-adenosylmethionine disulfate tosylate manufactured by CHEMaster. The sample in Comparative Example 2 and the sample in Comparative Example 3 were mixed and used as a mixture of the yeast containing no S-adenosylmethionine and S-adenosylmethionine disulfate tosylate (the sample in Comparative Example 4). S-adenosylmethionine chloride used in Comparative Example 5 (the sample in Comparative Example 5) was a reagent from
SIGMA. In each of Example 1 and Comparative Examples 2, 3, 4, and 5, a suspension of the sample in a 0.5% by mass aqueous methyl cellulose solution was prepared and used as a sample solution for an experiment. A 0.5% by mass aqueous methyl cellulose solution (the sample in Comparative Example 1) was used as a control solution.
When a sample has the function of inducing sleep, the amount of activity always decreases after administration of the sample. Therefore, the sleep inducing effect of each sample was evaluated by determining whether or not the administration of the sample solution to a mouse caused a reduction in the amount of activity.
8-Week old or 9-week old male C57BL/6 mice were purchased from Japan SLC, Inc. and acclimatized for 3 to 6 days. The amount of activity during acclimatization was used to divide the mice into administration groups. Immediately before the onset of the dark period, a sample solution or the control solution was orally administered in an amount of 10 mL/kg per body weight, and the amount of activity was measured for 24 hours after administration. Each administration group included 8 mice (n=8).
The amount of activity was measured under the following conditions. The mice were raised in individual cages, and an infrared camera was disposed above each cage. The imaging range of the infrared camera was divided into 64 sections, and the number of occurrences that the mouse crossed a section was measured. The number of occurrences was collected every 30 minutes.
In FIG. 2, “**” represents that a significant difference was found at p<0.01.

[2] = intravenous injection or intramuscular injection; cited from earlier work

| Molecule | CUMULATIVE AMOUNT OF ACTIVITY 6 HOURS AFTER ADMINISTRATION ([1]; 150 mg/kg (137 mg/kg in terms of S-adenosylmethionine)) | sleep inducing effect [1] | CUMULATIVE AMOUNT OF ACTIVITY 6 HOURS AFTER ADMINISTRATION ([1]; 293 mg/kg (150 mg/kg in terms of S-adenosylmethionine)) | influence on sleep onset latency [2] | length of NREM sleep (stage 4) [2] |
| --- | --- | --- | --- | --- | --- |
| C[S+](CC[C@H](N)C(=O)O)C[C@H]1O[C@@H](n2cnc3c(N)ncnc32)[C@H](O)[C@@H]1O.[Cl-] (stereo partly drawn) [Comparative Example 5, S-adenosylmethionine chloride] | 7068 NUMBER OF OCCURRENCES/6 HOURS | no sleep inducing effect |  |  |  |
| S-adenosylmethionine disulfate tosylate [Comparative Example 3] |  | no sleep inducing effect | 8618 NUMBER OF OCCURRENCES/6 HOURS | no influence | extended |
